This series has as its system Spontaneously Hypertensive Rats. The series is described as follows: Test 1: antihypertensive effects (systolic tail artery blood pressure) and heart rate in spontaneously hypertensive rats, oral. The class given is in vivo, rat (male, SHR). The settings on record: SHR; for change in vivo at 1 mg/kg / change in vivo at 10 mg/kg: Rattus norvegicus; for Change (%) in heart rate: maximum value. As to the method:
The antihypertensive effects of the certain compounds of this invention were studied in the following manner.
Among male, spontaneously hypertensive rats (SHRs) of 20 weeks of age or older and 350-430 g heavy all of which had developed hypertension, those having systolic blood pressures of 180 mmHg or higher were used in groups, each of which was constituted of 3-4 of the rats. […] Besides, heart rates were also measured simultaneously. The compounds were each dissolved or suspended in a 0.5% methylcellulose solution and then administered orally.
*All administered orally at a dosage of 1 mg/Kg except for the compounds
**Each percent change in heart rate is indicated by the corresponding

Setting [1] is: oral 1 mg/Kg, 1 hour, read-out: Antihypertensive effects, change (%) in blood pressure, 1 hour later.
[2] abbreviates: oral 1 mg/Kg, 3 hours, read-out: Antihypertensive effects, change (%) in blood pressure, 3 hours later.
Setting [3] is: oral 1 mg/Kg, 6 hours, read-out: Antihypertensive effects, change (%) in blood pressure, 6 hours later.
The mark [4] stands for this setting: oral 1 mg/Kg, 24 hours, read-out: Antihypertensive effects, change (%) in blood pressure, 24 hours later.

Read-outs that look alike come from different tables or passages of the source.

In the case of `COc1cc2nc(N3CCN(c4ncc5c(n4)CCCC(=O)N5)CC3)nc(N)c2cc1OC` [Example 31], the change in vivo at 1 mg/kg by setting is: under setting [1], -2.8%; under setting [2], -8.5%; under setting [3], -17.8%; under setting [4], -3.8%.
`CCN(CC)C(=O)c1cnc(N2CCN(c3nc(N)c4cc(OC)c(OC)cc4n3)CC2)nc1C` [Example 42]: the change in vivo at 1 mg/kg is, setting by setting: under setting [1], -16.5%; under setting [2], -19.5%; under setting [3], -24%; under setting [4], -7.5%. For the same molecule, the “Change (%) in heart rate” value (oral 1 mg/Kg) is on record as “+5.2%”.
Taken in the same sequence, the figures for `COc1cc2nc(N3CCN(c4ncc5c(=O)n(CCO)ccc5n4)CC3)nc(N)c2cc1OC` [Example 7] were 1.5%, -4.4%, -9.3%, -2.9% and “+2.8%”.
For `CCOC(=O)c1cnc(N2CCN(c3nc(N)c4cc(OC)c(OC)cc4n3)CC2)nc1O` [Example 50], the change in vivo at 1 mg/kg was -1.5% under setting [1], -14.6% under setting [3] and -6.3% under setting [4]. The “Change (%) in heart rate” value (oral 1 mg/Kg) was “+2.9%”.
For the molecule `CCOC(=O)c1cnc(N2CCN(c3nc(N)c4cc(OC)c(OC)cc4n3)CC2)nc1NC(C)=O` [Example 60], the change in vivo at 1 mg/kg was -1.6% under setting [1], -5.2% under setting [2], -8.8% under setting [3] and -1% under setting [4]. In addition, where the note is “oral 1 mg/Kg”, the “Change (%) in heart rate” value is reported as “+6.0%”.
For `CCN(CC)C(=O)c1cnc(N2CCN(c3nc(N)c4cc(OC)c(OC)cc4n3)CC2)nc1N` [Example 65], the change in vivo at 10 mg/kg reads like this: (oral 10 mg/Kg, 1 hour, read-out: Antihypertensive effects, change (%) in blood pressure, 1 hour later) -4.9%; (oral 10 mg/Kg, 3 hours, read-out: Antihypertensive effects, change (%) in blood pressure, 3 hours later) -18.4%; (oral 10 mg/Kg, 6 hours, read-out: Antihypertensive effects, change (%) in blood pressure, 6 hours later) -21.4%; (oral 10 mg/Kg, 24 hours, read-out: Antihypertensive effects, change (%) in blood pressure, 24 hours later) -6.3%. Under “oral 10 mg/Kg”, the “Change (%) in heart rate” value is given as “+8.9%”.
Consider `COc1cc2nc(N3CCN(c4ncc5c(=O)n(-c6ccccc6)ccc5n4)CC3)nc(N)c2cc1OC` [Example 9], for which the change in vivo at 1 mg/kg under setting [1] is -1.5%, the change in vivo at 1 mg/kg under setting [2] is -8.1%, the change in vivo at 1 mg/kg under setting [3] is -9.6% and the change in vivo at 1 mg/kg under setting [4] was -5.1%. The “Change (%) in heart rate” value (oral 1 mg/Kg) is on record as “+4.3%”.
For the molecule `COc1cc2nc(N3CCN(c4ccc5ccccc5n4)CC3)nc(N)c2cc1OC.Cl` [Example 94, 4-Amino-6,7-dimethoxy-2-(4-(2-quinolyl)piperazino)quinazoline hydrochloride], the change in vivo at 1 mg/kg by setting is: under setting [1], -0.5%; under setting [2], -12.7%; under setting [3], -22.1%; under setting [4], -5.4%. Moreover, where the note is “oral 1 mg/Kg”, the “Change (%) in heart rate” value is listed as “+5.4%”.
The like results for `COc1cc2nc(N3CCN(c4ncc5c(=O)n(C)[nH]c5n4)CC3)nc(N)c2cc1OC.Cl` [Example 83, 4-Amino-6,7-dimethoxy-2-(4-(2-methyl-3-oxo-2,3-dihydro-1H-pyrazolo[3,4-d]pyrimidine-6-yl)piperazino)quinazoline hydrochloride] were, in that order, -3.9%, -4.4%, -5.3%, -0.5% and “+5.6%”.
The like results for `CNC(=O)c1cnc(N2CCN(c3nc(N)c4cc(OC)c(OC)cc4n3)CC2)nc1NC` [Example 68] were, in that order, 1.4%, -19.6%, -28.2%, -11.5% and “+5.2%”.
On to `CCCN(CCC)C(=O)c1cnc(N2CCN(c3nc(N)c4cc(OC)c(OC)cc4n3)CC2)nc1NCC` [Example 80], for which the change in vivo at 1 mg/kg by setting is: under setting [1], -13.9%; under setting [2], -26%; under setting [3], -33.2%; under setting [4], -10.1%. The “Change (%) in heart rate” value (oral 1 mg/Kg) was “+12.3%”.
Consider `CCn1ccc2nc(N3CCN(c4nc(N)c5cc(OC)c(OC)cc5n4)CC3)ncc2c1=S` [Example 16], for which the change in vivo at 1 mg/kg was -2% under setting [1], -8.9% under setting [2], -15.3% under setting [3] and -8.9% under setting [4]. For the same molecule, the “Change (%) in heart rate” value (oral 1 mg/Kg) was “+7.5%”.
As to `COc1cc2cnc(N3CCN(c4nc(N)c5cc(OC)c(OC)cc5n4)CC3)nc2cc1OC` [Example 71], the change in vivo at 1 mg/kg under setting [1] came out at 0.5%, the change in vivo at 1 mg/kg under setting [2] is -13.4%, the change in vivo at 1 mg/kg under setting [3] was -19.1% and the change in vivo at 1 mg/kg under setting [4] is -9.6%. Moreover, the “Change (%) in heart rate” value (oral 1 mg/Kg) is on record as “+15.9%”.
Taken in the same sequence, the figures for `CCOC(=O)c1cnc(N2CCN(c3nc(N)c4cc(OC)c(OC)cc4n3)CC2)nc1N(C)C` [Example 56] were -21.4%, -22.4%, -22.9%, -4.5% and “+13.5%”.
Taken in the same sequence, the figures for `CCN(CC)C(=O)c1cnc(N2CCN(c3nc(N)c4cc(OC)c(OC)cc4n3)CC2)nc1NC(C)C` [Example 78] were -23.4%, -33.7%, -50.2%, -18.5% and “+23.7%”.
The like results for `COc1cc2nc(N3CCN(c4nc(SC)c5c6c(sc5n4)CCCC6C)CC3)nc(N)c2cc1OC` (stereo not drawn) [Example 75] were, in that order, 12.2%, 0.5%, -7.8%, -3.9% and “+8.2%”.
As for `CCNc1nc(N2CCN(c3nc(N)c4cc(OC)c(OC)cc4n3)CC2)ncc1C(=O)N(CC)CC` [Example 67], the change in vivo at 1 mg/kg reads like this: under setting [1], -21.4%; under setting [2], -28.6%; under setting [3], -38.4%; under setting [4], -16.7%. Under “oral 1 mg/Kg”, the “Change (%) in heart rate” value was “+7.4%”.
The like results for `COc1cc2nc(N3CCN(c4ncc(C(C)=O)c(C)n4)CC3)nc(N)c2cc1OC` [Example 36] were, in that order, -14.6%, -16.5%, -15%, -2.4% and “+9.5%”.
Consider `COc1cc2nc(N3CCN(c4nc(N)c5cc(OC)c(OC)cc5n4)CC3)nc(N)c2cc1OC` [Example 72], for which the change in vivo at 1 mg/kg by setting is: under setting [1], 2.9%; under setting [2], -2%; under setting [3], -2.5%; under setting [4], -2.9%. The “Change (%) in heart rate” value (oral 1 mg/Kg) is “+8.6%”.
The like results for `COc1cc2nc(N3CCN(c4ncc5c(=O)n(Cc6ccccc6)ccc5n4)CC3)nc(N)c2cc1OC` [Example 10] were, in that order, 1.5%, -14.4%, -11.9%, -5% and “+5.2%”.
The like results for `COc1cc2nc(N3CCN(c4ncc5c(=O)n(C(C)C)ccc5n4)CC3)nc(N)c2cc1OC` [Example 6] were, in that order, -1.5%, -13.8%, -16.7%, -9.9% and “+5.1%”.
The like results for `CCn1ccc(=O)c2cnc(N3CCN(c4nc(N)c5cc(OC)c(OC)cc5n4)CC3)nc21` [Example 20] were, in that order, 1.5%, -12.5%, -12%, -2% and “+5.7%”.
As to `CCn1ccc2nc(N3CCN(c4ncc5ccccc5n4)CC3)ncc2c1=O` [Example 96, 2-(4-(5,6-Dihydro-6-ethyl-5-oxopyrido[4,3-d]pyrimidine-2-yl)piperazino)quinazoline], the change in vivo at 1 mg/kg under setting [1] turned out to be 3%, the change in vivo at 1 mg/kg under setting [2] is -2.5%, the change in vivo at 1 mg/kg under setting [3] was -8% and the change in vivo at 1 mg/kg under setting [4] was -6.5%. Moreover, the “Change (%) in heart rate” value (oral 1 mg/Kg) is given as “+2.9%”.
With `CCCCCCCN1Cc2nc(N3CCN(c4nc(N)c5cc(OC)c(OC)cc5n4)CC3)ncc2C1=O` [Example 90], the change in vivo at 1 mg/kg is, setting by setting: under setting [1], 2.3%; under setting [2], -6.8%; under setting [3], -15.5%; under setting [4], -2.7%. Besides, the “Change (%) in heart rate” value (oral 1 mg/Kg) was “+8.7%”.
Taken in the same sequence, the figures for `CCn1cc(C)c2nc(N3CCN(c4nc(N)c5cc(OC)c(OC)cc5n4)CC3)ncc2c1=O` [Example 12] were -11%, -14.3%, -19%, -6.7% and “+7.0%”.

The record behind these values is patent US4734418A, “Quinazoline compounds and antihypertensives” (priority 1984, dated 1988).
